Assay results from ChEMBL document CHEMBL4311995, “Discovery and development of extreme selective inhibitors of the ITD and D835Y mutant FLT3 kinases” (Eur J Med Chem, 2019).
pIC50: −log10 of the molar value. Converted amounts (≈) assume the structure as drawn.

Experiments:
[1] = physchem; conditions: buffer, pH 2
[2] = test system: U-937; assay: cells; type: functional, cell-based; conditions: Homo sapiens, U-937, 72 h
[3] = test system: K562; assay: cells; type: functional, cell-based; conditions: Homo sapiens, K562, 72 h
[4] = cells; type: ADME, cell-based; conditions: Homo sapiens, HS5, 72 h
[5] = in vitro; conditions: PAMPA, pH 7.4
[6] = physchem; conditions: buffer, pH 7.4
[7] = test system: MV4-11; assay: cells; type: functional, cell-based; conditions: Homo sapiens, MV4-11, 72 h

| Structure (SMILES) | solubility kinetic at 24 h [1] [µM] | pIC50 [2] | pIC50 [3] | pIC50 [4] | Papp at 5 h [5] [nm/s] | solubility kinetic at 24 h [6] [µM] | pIC50 [7] |
| --- | --- | --- | --- | --- | --- | --- | --- |
| CN(C)CCNc1nc(/C=C/c2ccc(S(C)(=O)=O)cc2)nc2ccc(Cl)cc12 | 112 (≈ 48.3 µg/mL) | 4.91 | 5.16 | 5.32 | 3.6 | 8 (≈ 3.45 µg/mL) |  |
| CN(C)CCCNc1nc(/C=C/c2ccc(S(C)(=O)=O)cc2)nc2ccc(Cl)cc12 | 111 (≈ 49.4 µg/mL) | 5.04 | 5.32 | 5.39 | 6.1 | 23 (≈ 10.2 µg/mL) |  |
| CCN(CC)CCNc1nc(/C=C/c2ccc(S(C)(=O)=O)cc2)nc2ccc(Cl)cc12 | 115 (≈ 52.8 µg/mL) | 5.31 | 5.59 | 5.39 | 5.6 | 12 (≈ 5.51 µg/mL) | 7.40 |
| CN(C)CCNc1nc(/C=C/c2ccc(F)cc2)nc2ccccc12 | 120 (≈ 40.4 µg/mL) | 4.96 | 5.24 | 5.20 | 96.1 | 10 (≈ 3.36 µg/mL) |  |
| CC(C)c1ccc(/C=C/c2nc(NCCN(C)C)c3cc(F)ccc3n2)cc1 | 119 (≈ 45 µg/mL) | 5.39 | 5.39 | 5.48 | 33.8 | 5 (≈ 1.89 µg/mL) | 7.22 |
| CSc1ccc(/C=C/c2nc(NCCN(C)C)c3ccccc3n2)cc1 | 119 (≈ 43.4 µg/mL) |  | 5.28 | 5.40 | 58.6 | 116 (≈ 42.3 µg/mL) |  |

Second part, the compound after the results:

| solubility kinetic at 24 h [1] [µM] | pIC50 [2] | pIC50 [3] | pIC50 [4] | Papp at 5 h [5] [nm/s] | solubility kinetic at 24 h [6] [µM] | pIC50 [7] | Structure (SMILES) |
| --- | --- | --- | --- | --- | --- | --- | --- |
| 96 (≈ 45.1 µg/mL) | 5.20 | 5.39 | 5.68 | 53.5 | 96 (≈ 45.1 µg/mL) |  | CCN(CC)CCCNc1nc(/C=C/c2ccc(OC)cc2)nc2ccc(Br)cc12 |
| 110 (≈ 43.4 µg/mL) |  | 5.54 | 5.52 | 7.3 | 12 (≈ 4.74 µg/mL) |  | CC(C)c1ccc(/C=C/c2nc(NCCN(C)C)c3cc(Cl)ccc3n2)cc1 |
|  | 4.70 | 5.04 | 4.94 |  |  | 7.22 | COc1cc2c(N3CCN(C(=O)Nc4ccc(OC(C)C)cc4)CC3)ncnc2cc1OCCCN1CCCCC1 [TANDUTINIB] |
| 120 (≈ 48.8 µg/mL) | 5.39 | 5.67 | 5.47 | 17.4 | 36 (≈ 14.6 µg/mL) |  | CCN(CC)CCNc1nc(/C=C/c2ccc(C(C)C)cc2)nc2ccc(F)cc12 |
